Results from US20030022251A1, “Gamma-secretase in vitro screening assay” (Boehringer Ingelheim Pharma KG, priority 2001, published 2003).
“Also recorded” adds a separate entry of the source.

What was measured:
γ-secretase [1] = biological target: T1, γ-secretase (Homo sapiens, UniProt P49768); assay: Analysis of CTFγ and βAPP CTFs in membrane fractions of inhibitor-treated HEK 293 cells stably transfected with swAPP (immunoprecipitation/immunoblotting with antibody 6687); type: cell-based; conditions: increasing concentrations of DAPT for 4 h
T1 construct: HEK 293 cells stably transfected with swAPP were treated with the indicated concentrations of DAPT for 4 h; endogenous in cells; host or cells: HEK 293 cells stably transfected with swAPP695 (only the substrate is transfected; the γ-secretase is the cells' own)
Method: FIG. 1: Identification of in vivo produced CTFγ in human cells and mouse brain according to Example 1: (A) Membrane fractions of HEK 293 cells stably transfected with Swedish mutant βAPP695 (swAPP) were analyzed by combined immunoprecipitation/immunoblotting with antibody 6687 to the C-terminus of βAPP. Three βAPP CTFs were detected (C99 (=CTFβ), C83 (=CTFα), and the approximately 6 kDa CTFγ). The same βAPP CTFs including the approximately 6 kDa CTFγ were also observed by immunoblotting with antibody 6687 in mouse brain. (B) The γ-secretase inhibitor DAPT inhibits CTFγ production. HEK 293 cells stably transfected with swAPP were treated with the indicated concentrations of DAPT for 4 h. Upper and middle panel: Membrane fractions were prepared and analyzed for βAPP CTFs by combined immunoprecipitation/immunoblotting with antibody 6687. […] Lower panel: Conditioned media were analyzed for secreted Aβ by combined immunoprecipitation/immunoblotting with antibodies 3926/6E10. […] (C) CTFγ production is dependent on biologically active presenilins. Membrane fractions from control cells expressing PS1 wt or cells stably expressing PS1 D385N were analyzed by combined immunoprecipitation/immunoblotting with antibody 6687. […]
CTFγ was analyzed by combined immunoprecipitation/westernblotting with antibody 6687 of membrane extracts from stably transfected HEK 293 cells or from mouse brain. […]

γ-secretase [2] = biological target: T1, γ-secretase; assay: Analysis of secreted Aβ in conditioned media of HEK 293 swAPP cells (immunoprecipitation/immunoblotting with antibodies 3926/6E10); type: cell-based; conditions: DAPT for 4 h, FIG. 1B lower panel
Method: FIG. 1: Identification of in vivo produced CTFγ in human cells and mouse brain according to Example 1: (A) Membrane fractions of HEK 293 cells stably transfected with Swedish mutant βAPP695 (swAPP) were analyzed by combined immunoprecipitation/immunoblotting with antibody 6687 to the C-terminus of βAPP. Three βAPP CTFs were detected (C99 (=CTFβ), C83 (=CTFα), and the approximately 6 kDa CTFγ). The same βAPP CTFs including the approximately 6 kDa CTFγ were also observed by immunoblotting with antibody 6687 in mouse brain. (B) The γ-secretase inhibitor DAPT inhibits CTFγ production. HEK 293 cells stably transfected with swAPP were treated with the indicated concentrations of DAPT for 4 h. Upper and middle panel: Membrane fractions were prepared and analyzed for βAPP CTFs by combined immunoprecipitation/immunoblotting with antibody 6687. […] Lower panel: Conditioned media were analyzed for secreted Aβ by combined immunoprecipitation/immunoblotting with antibodies 3926/6E10. […] Membrane fractions from control cells expressing PS1 wt or cells stably expressing PS1 D385N were analyzed by combined immunoprecipitation/immunoblotting with antibody 6687. […]
Aβ was immunoprecipitated from conditioned media collected for 4 h with antibody 3926, separated on Tris-Tricine gels and detected by immunoblotting with antibody 6E10 using a chemiluminescent detection system (Tropix, USA).

γ-secretase [3] = assay: In vitro generation of CTFγ from membrane preparations of HEK 293 cells stably transfected with swAPP (immunoblotting with antibody 6687); type: biochemical, human; conditions: 250 nM DAPT
Method: FIG. 2: In vitro generation of CTFγ according to Example 1: (A) Time dependent in vitro production of CTFγ. Membrane preparations were incubated at 37° C. for the indicated time points. The reaction mixtures were then separated in a soluble fraction (S100; lower panel) and a pellet fraction (P100; upper panel) by ultracentrifugation. These fractions were immunoblotted with antibody 6687. Note the selective accumulation of CTFγ in the S100(lower panel) fraction after 1-2 h incubation time. Very minor amounts of CTFγ were detected in the P100 fraction, which may be due to sticking of the highly hydrophobic CTFγ to membranes or to contamination of the P100 fraction with minor amounts of soluble proteins. (B) Two independent γ-secretase inhibitors (DAPT and “Compound 1”) inhibit the in vitro production of CTFγ. Membrane preparations were incubated with (+) or without (−) 250 nM DAPT (left panel) or 50 μM CM256 (right panel). The S100 fractions of the reaction mixtures were immunoblotted with antibody 6687. […]
CTFγ was generated in vitro from membrane preparations of HEK 293 cells stably transfected with swAPP following previously described procedures (McLendon et al., 2000; Pinnix et al., 2001). […] Following SDS-PAGE on 10-20% Tris-Tricine gels (Invitrogen) samples were analyzed for CTFγ by immunoblotting with antibody 6687.

Question: Which results are given for `C[C@H](NC(=O)Cc1cc(F)cc(F)c1)C(=O)N[C@H](C(=O)OC(C)(C)C)c1ccccc1` [DAPT, N-[N-(3,5-difluorophenacetyl)-L-alanyl]-S-phenylglycin t-butyl ester]?
Answer: CTFγ generation (γ-secretase [1]; FIG. 1B middle panel): significant block of CTFγ generation; also recorded: dose dependent inhibition of CTFγ generation; CTFβ and CTFα levels (γ-secretase [1]; FIG. 1B upper panel): build up of CTFβ and CTFα; also recorded: increase of βAPP CTFβ and CTFα; secreted Aβ generation (γ-secretase [2]): dose dependent inhibition; also recorded: severely reduced Aβ production; in vitro CTFγ generation (γ-secretase [3]; membrane preparations at 37° C., S100 fraction, FIG. 2B left panel): significantly reduce CTFγ generation; also recorded: efficiently reduced in vitro generation of CTFγ; remaining in vitro CTFγ production (γ-secretase [3]; membranes from cells expressing the inactive PS1 D385N mutation, FIG. 2D): reduces the remaining in vitro CTFγ production; also recorded: further reduced
